The values below come from article PMC10145814 (Viruses, 2023).

This assay addresses T1, PI4KB (Homo sapiens, UniProt Q9UBF8).
T1 construct: purified GST-PI4KB (PV5277, Thermo Fisher)
Format: biochemical.

Usually IC50 stands for the point on the concentration scale where inhibition reaches its midpoint.

T1 sequence (Q9UBF8 2-816): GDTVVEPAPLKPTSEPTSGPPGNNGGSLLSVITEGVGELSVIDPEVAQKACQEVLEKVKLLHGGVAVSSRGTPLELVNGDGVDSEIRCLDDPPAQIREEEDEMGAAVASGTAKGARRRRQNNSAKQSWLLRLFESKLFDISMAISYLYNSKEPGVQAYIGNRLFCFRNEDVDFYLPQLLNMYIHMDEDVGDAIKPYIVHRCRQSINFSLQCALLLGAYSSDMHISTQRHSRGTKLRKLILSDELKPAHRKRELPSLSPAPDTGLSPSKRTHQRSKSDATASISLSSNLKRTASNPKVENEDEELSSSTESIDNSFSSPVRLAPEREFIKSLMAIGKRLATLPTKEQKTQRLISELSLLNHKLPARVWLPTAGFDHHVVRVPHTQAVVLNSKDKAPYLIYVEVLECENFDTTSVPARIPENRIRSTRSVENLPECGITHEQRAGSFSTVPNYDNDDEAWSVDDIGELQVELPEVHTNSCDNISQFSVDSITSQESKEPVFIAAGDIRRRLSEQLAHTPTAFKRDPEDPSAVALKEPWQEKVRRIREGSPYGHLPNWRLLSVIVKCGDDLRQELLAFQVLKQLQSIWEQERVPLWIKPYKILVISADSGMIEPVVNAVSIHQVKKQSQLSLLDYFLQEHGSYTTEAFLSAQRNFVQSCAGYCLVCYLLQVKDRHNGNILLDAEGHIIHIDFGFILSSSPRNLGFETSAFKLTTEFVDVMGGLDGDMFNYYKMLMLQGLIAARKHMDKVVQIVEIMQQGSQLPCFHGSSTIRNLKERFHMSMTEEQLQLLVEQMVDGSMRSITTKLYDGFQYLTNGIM

As for `COc1cc(/C=C/C(=O)OC[C@H]2O[C@H](O[C@]3(COC(=O)/C=C/c4ccc(O)cc4)O[C@H](COC(=O)/C=C/c4ccc(O)cc4)[C@@H](O)[C@@H]3OC(=O)/C=C/c3ccc(O)cc3)[C@H](O)[C@@H](O)[C@@H]2O)ccc1O` [VCB, vanicoside B], the IC50 worked out at 5 µM.
